In patent US20140274688A1, “MOLECULES HAVING CERTAIN PESTICIDAL UTILITIES, AND INTERMEDIATES, COMPOSITIONS, AND PROCESSES RELATED THERETO” (DOW AGROSCIENCES LLC, priority 2013, published 2014):

Assays:
[1] = system: Beet Armyworm (Spodoptera exigua) ("BAW"); assay: Bioassay on Beet Armyworm (BAW), 128-well diet tray assay, percent mortality; format: in vivo; settings: for BAW rating (percent mortality class): Beet Armyworm, 128-well diet tray assay
Source text: (§1) Bioassays on Beet Armyworm (Spodoptera exigua) (“BAW”) and Cabbage Looper (Trichoplusia ni) (“CL”)
(§2) BAW has few effective parasites, diseases, or predators to lower its population. BAW infests many weeds, trees, grasses, legumes, and field crops. In various places, it is of economic concern upon asparagus, cotton, corn, soybeans, tobacco, alfalfa, sugar beets, peppers, tomatoes, potatoes, onions, peas, sunflowers, and citrus, among other plants. The Cabbage Looper is a member of the moth family Noctuidae. It is found throughout the world. It is attacks cabbage, cauliflower, broccoli, Brussel sprouts, tomatoes, cucumbers, potatoes, kale, turnips, mustard, peppers, eggplant, watermelons, melons, squash, cantaloupe, peas, beans, collards, lettuce, spinach, celery, parsley, beets, peas, alfalfa, soybeans, and cotton. This species is very destructive to plants due to its voracious consumption of leaves. In the case of cabbage, however, they feed not only on the wrapper leaves, but also may bore into the developing head. The larvae consume three times their weight in plant material daily. The feeding sites are marked by large accumulations of sticky, wet fecal material.
(§3) Consequently, because of the above factors control of these pests is important.
(§4) Certain molecules disclosed in this document were tested against BAW and CEW using procedures described in the following examples. In the reporting of the results, the “BAW & CL Rating Table” was used (See Table Section).
(§5) Trays were covered with a clear self-adhesive cover and held at 25° C., 14:10 light-dark for five to seven days. Percent mortality was recorded for the larvae in each well; activity in the eight wells was then averaged. The results are indicated in the table entitled “Table ABC: Biological Results” (See Table Section).

[2] = system: Cabbage Looper (Trichoplusia ni) ("CL"); assay: Bioassay on Cabbage Looper (CL), 128-well diet tray assay, percent mortality; format: in vivo; settings: for CL rating (percent mortality class): Cabbage Looper, 128-well diet tray assay; for pest or weed control at 50 µg/cm2: Trichoplusia ni, read-out: CL
Source text: as §1, §2, §3, §4
Bioassays on Cabbage Looper in CL
as §5

Row | Structure (SMILES) | BAW rating (percent mortality class) [1] | CL rating (percent mortality class) [2] | pest or weed control at 50 µg/cm2 [2] [%] | pest or weed control at 50 µg/cm2 ([1]; Spodoptera exigua, read-out: BAW) [%]
1 | CC(C)c1ccccc1N1C(=O)CS/C1=N\C(=O)NCCc1ccc(-c2ncn(-c3ccc(OC(F)(F)F)cc3)n2)cc1 [F1, (Z)-1-(3-(2-isopropylphenyl)-4-oxothiazolidin-2-ylidene)-3-(4-(1-(4-(trifluoromethoxy)phenyl)-1H-1,2,4-triazol-3-yl)phenethyl)urea] | A (50-100) | A (50-100) |  | 
2 | CC(Cc1ccc(-c2ncn(-c3ccc(OC(F)(F)F)cc3)n2)cc1)NC(=O)NC(=S)Nc1ccccc1C(C)C (stereo not shown) [F4, N-[2-(propan-2-yl)phenyl]-N′-[1-(4-{1-[4-(trifluoromethoxy)phenyl]-1H-1,2,4-triazol-3-yl}phenyl)propan-2-yl]dicarbonimidothioic diamide] | A (50-100) | A (50-100) |  | 
3 | Cc1ccc(C(C)C)c(N2C(=O)CS/C2=N\C(=O)NC(C)Cc2ccc(-c3ncn(-c4ccc(OC(F)(F)F)cc4)n3)cc2)c1 (stereo not shown) [F8, (Z)-1-(3-(2-isopropyl-5-methylphenyl)-4-oxothiazolidin-2-ylidene)-3-(1-(4-(1-(4-(trifluoromethoxy)phenyl)-1H-1,2,4-triazol-3-yl)phenyl)propan-2-yl)urea] | A (50-100) | A (50-100) |  | 
4 | CC(C)c1ccccc1NC(=S)NC(=O)N/C=C/c1ccc(-c2ncn(-c3ccc(OC(F)(F)F)cc3)n2)cc1 [F11, N-[2-(propan-2-yl)phenyl]-N′-[(E)-2-(4-{1-[4-(trifluoromethoxy)phenyl]-1H-1,2,4-triazol-3-yl}phenyl)ethenyl]dicarbonimidothioic diamide] | A (50-100) | A (50-100) |  | 
5 | CC(C)c1ccccc1N1C(=O)CS/C1=N\C(=O)N/C=C/c1ccc(-c2ncn(-c3ccc(OC(F)(F)F)cc3)n2)cc1 [F12] | A (50-100) | A (50-100) |  | 
6 | C/C(=C\NC(=O)/N=C1\SCC(=O)N1c1ccccc1C(C)C)c1ccc(-c2ncn(-c3ccc(OC(F)(F)F)cc3)n2)cc1 [F13] | A (50-100) | A (50-100) |  | 
7 | CC(C)c1ccccc1NC(=S)NC(=O)NCc1ccc(-c2ncn(-c3ccc(OC(F)(F)C(F)(F)F)cc3)n2)cc1 [F15, N-(4-{1-[4-(pentafluoroethoxy)phenyl]-1H-1,2,4-triazol-3-yl}benzyl)-N′-[2-(propan-2-yl)phenyl]dicarbonimidothioic diamide] | A (50-100) | A (50-100) |  | 
8 | Cc1ccc(C(C)C)c(NC(=S)NC(=O)NCc2ccc(-c3ncn(-c4ccc(OC(F)(F)C(F)(F)F)cc4)n3)cc2)c1 [F16, N-[5-methyl-2-(propan-2-yl)phenyl]-N′-(4-{1-[4-(pentafluoroethoxy)phenyl]-1H-1,2,4-triazol-3-yl}benzyl)dicarbonimidothioic diamide] | A (50-100) | A (50-100) |  | 
9 | CC(C)c1ccccc1N1C(=O)CS/C1=N\C(=O)NCc1ccc(-c2ncn(-c3ccc(OC(F)(F)F)cc3)n2)cc1 [F17, (Z)-1-(3-(2-isopropylphenyl)-4-oxothiazolidin-2-ylidene)-3-(4-(1-(4-(trifluoromethoxy)phenyl)-1H-1,2,4-triazol-3-yl)benzyl)urea] | A (50-100) | A (50-100) |  | 
10 | CC(C)c1ccccc1N1C(=O)CS/C1=N\C(=O)NCc1ccc(-c2ncn(-c3ccc(OC(F)(F)C(F)(F)F)cc3)n2)cc1 [F18, (Z)-1-(3-(2-isopropylphenyl)-4-oxothiazolidin-2-ylidene)-3-(4-(1-(4-(perfluoroethoxy)phenyl)-1H-1,2,4-triazol-3-yl)benzyl)urea] | A (50-100) | A (50-100) |  | 
11 | Cc1ccc(C(C)C)c(N2C(=O)CS/C2=N\C(=O)NCc2ccc(-c3ncn(-c4ccc(OC(F)(F)C(F)(F)F)cc4)n3)cc2)c1 [F19, (Z)-1-(3-(2-isopropyl-5-methylphenyl)-4-oxothiazolidin-2-ylidene)-3-(4-(1-(4-(perfluoroethoxy)phenyl)-1H-1,2,4-triazol-3-yl)benzyl)urea] | A (50-100) | A (50-100) |  | 
12 | CC(C)c1ccccc1NC(=S)NC(=O)NC1CC1c1ccc(-c2ncn(-c3ccc(OC(F)(F)F)cc3)n2)cc1 (stereo not shown) [F22, N-[2-(propan-2-yl)phenyl]-N′-[2-(4-{1-[4-(trifluoromethoxy)phenyl]-1H-1,2,4-triazol-3-yl}phenyl)cyclopropyl]dicarbonimidothioic diamide] | A (50-100) | A (50-100) |  | 
13 | CCCc1ccccc1NC(=S)NC(=O)NC1CC1c1ccc(-c2ncn(-c3ccc(OC(F)(F)F)cc3)n2)cc1 (stereo not shown) [F23] | A (50-100) | A (50-100) |  | 
14 | CCc1cccc(C)c1NC(=S)NC(=O)NC1CC1c1ccc(-c2ncn(-c3ccc(OC(F)(F)F)cc3)n2)cc1 (stereo not shown) [F24, N-(2-ethyl-6-methylphenyl)-N′-[2-(4-{1-[4-(trifluoromethoxy)phenyl]-1H-1,2,4-triazol-3-yl}phenyl)cyclopropyl]dicarbonimidothioic diamide] | A (50-100) | A (50-100) |  | 
15 | Cc1cccc(C)c1NC(=S)NC(=O)NC1CC1c1ccc(-c2ncn(-c3ccc(OC(F)(F)F)cc3)n2)cc1 (stereo not shown) [F25] | A (50-100) | A (50-100) |  | 
16 | COc1ccc(NC(=S)NC(=O)NC2CC2c2ccc(-c3ncn(-c4ccc(OC(F)(F)F)cc4)n3)cc2)c(C)c1 (stereo not shown) [F26] | A (50-100) | A (50-100) |  | 
17 | Cc1ccc(C(C)C)c(NC(=S)NC(=O)NCc2ccc(-c3ncn(-c4ccc(OC(F)(F)F)cc4)n3)cc2)c1 [F35, N-[5-methyl-2-(propan-2-yl)phenyl]-N′-(4-{1-[4-(trifluoromethoxy)phenyl]-1H-1,2,4-triazol-3-yl}benzyl)dicarbonimidothioic diamide] | A (50-100) |  |  | 
18 | Cc1ccc(-n2c(C)cs/c2=N\C(=O)NCc2ccc(-c3ncn(-c4ccc(OC(F)(F)F)cc4)n3)cc2)c(C(C)C)c1 [P20, (Z)-1-(3-(2-isopropyl-4-methylphenyl)-4-methylthiazol-2(3H)-ylidene)-3-(4-(1-(4-(trifluoromethoxy)phenyl)-1H-1,2,4-triazol-3-yl)benzyl)urea] |  |  | 50 to 100 | 
19 | Cc1ccc(C(C)C)c(N2C(=O)CS/C2=N\C(=O)NCCc2cccc(-c3ncn(-c4ccc(OC(F)(F)F)cc4)n3)c2)c1 [P81, (Z)-1-(3-(2-isopropyl-5-methylphenyl)-4-oxothiazolidin-2-ylidene)-3-(3-(1-(4-(trifluoromethoxy)phenyl)-1H-1,2,4-triazol-3-yl)phenethyl)urea] |  |  | 50 to 100 | 
20 | Cc1cccc(C)c1N1C(=O)CS/C1=N\C(=O)NCCCCc1ccc(-c2ncn(-c3ccc(OC(F)(F)F)cc3)n2)cc1 [P152, (Z)-1-(3-(2,6-dimethylphenyl)-4-oxothiazolidin-2-ylidene)-3-(4-(4-(1-(4-(trifluoromethoxy)phenyl)-1H-1,2,4-triazol-3-yl)phenyl)butyl)urea] |  |  | 50 to 100 | 
21 | CCc1cccc(C)c1N1C(=O)CS/C1=N\C(=O)NCCCCc1ccc(-c2ncn(-c3ccc(OC(F)(F)F)cc3)n2)cc1 [P153, (Z)-1-(3-(2-ethyl-6-methylphenyl)-4-oxothiazolidin-2-ylidene)-3-(4-(4-(1-(4-(trifluoromethoxy)phenyl)-1H-1,2,4-triazol-3-yl)phenyl)butyl)urea] |  |  | 50 to 100 | 
22 | Cc1ccccc1N1C(=O)CS/C1=N\C(=O)NCCCCc1cccc(-c2ncn(-c3ccc(OC(F)(F)F)cc3)n2)c1 [P170, (Z)-1-(4-oxo-3-(o-tolyl)thiazolidin-2-ylidene)-3-(4-(3-(1-(4-(trifluoromethoxy)phenyl)-1H-1,2,4-triazol-3-yl)phenyl)butyl)urea] |  |  | 50 to 100 | 
23 | Cc1ccc(N2C(=O)CS/C2=N\C(=O)NCCCCc2cccc(-c3ncn(-c4ccc(OC(F)(F)F)cc4)n3)c2)c(C(C)C)c1 [P180, (Z)-1-(3-(2-isopropyl-4-methylphenyl)-4-oxothiazolidin-2-ylidene)-3-(4-(3-(1-(4-(trifluoromethoxy)phenyl)-1H-1,2,4-triazol-3-yl)phenyl)butyl)urea] |  |  | 50 to 100 | 
24 | CCC(CNC(=O)/N=C1\SCC(=O)N1c1ccc(F)cc1C(C)C)c1ccc(-c2ncn(-c3ccc(OC(F)(F)F)cc3)n2)cc1 (stereo not shown) [P1163, (Z)-1-(3-(4-fluoro-2-isopropylphenyl)-4-oxothiazolidin-2-ylidene)-3-(2-(4-(1-(4-(trifluoromethoxy)phenyl)-1H-1,2,4-triazol-3-yl)phenyl)butyl)urea] |  |  |  | 50 to 100
